# Measurements reported in US12344820B2, “Laundry detergent and fabric care compositions with sulfonamides for odor removal from fabrics” (Rem Brands, Inc., priority 2019, dated 2025).
# Test: Soaking of sweaty polyester workout shirts in BENZ solution, subjective scent rating by a group of people
# Settings: for Post Dry average scent rating: 30 min soak, after shirt dried; for Post Wet average scent rating: after 30 minutes of soaking; for Pre Soak average scent rating: shirt smelled before soaking (baseline)
# Description: Polyester workout shirts were worn without deodorant during a one-hour workout to induce copious amounts of sweat. The shirts were kept in sealed plastic bags for several days, mimicking normal wash schedule delay. The shirts were then soaked in buckets containing various amounts of N-chloro-4-carboxybenzenesulfonamide (BENZ). The bucket contained either zero (control), 0.02 wt %, 0.04 wt %, or 0.15 wt % of the BENZ (e.g. 0.02 grams BENZ per 100 grams of water, w/w). No agitation, spinning, or moving of any kind occurred during the soaking. After 30 minutes of soaking, the shirts were wrung out and laid to dry.
# The shirts were smelled before soaking (Pre Soak), after the 30 minutes of soaking (Post Wet), and after they were dried (Post Dry) by a group of people who subjectively rated the scent of the shirt on a scale of 0 (no smell) to 10 (extremely smelly).
# [1] = 0.02 wt % BENZ in water, scale 0 to 10
# [2] = 0.04 wt % BENZ in water, scale 0 to 10
# [3] = 0.15 wt % BENZ in water, scale 0 to 10
smiles,measurement,setting,value
"O=C(O)c1ccc(S(=O)(=O)NCl)cc1 [BENZ, N-chloro-4-carboxybenzenesulfonamide]",Post Dry average scent rating,[1],5
same,Post Wet average scent rating,[1],5
same,Water average scent rating,[1],7
same,Pre Soak average scent rating,"0.02 wt % BENZ in water, scale 0 (no smell) to 10 (extremely smelly)",10
same,effect on malodor,0.02 wt % concentration,reduced the intensity of the malodor significantly
same,Post Dry average scent rating,[2],4
same,Post Wet average scent rating,[2],5
same,Water average scent rating,[2],5
same,Pre Soak average scent rating,[2],10
same,effect on malodor,0.04 wt % concentration,reduced the intensity of the malodor significantly
same,Post Dry average scent rating,[3],0
same,Post Wet average scent rating,[3],1
same,Water average scent rating,[3],2
same,Pre Soak average scent rating,[3],10
same,effect on malodor,"0.15 wt % concentration, once the shirt was dry",eradicated the malodor completely
